{
  "source": "patent US20020115642A1",
  "about": "“Beta-lactam antibiotics” (priority 2000, published 2002)",
  "key": {"S. epidermidis": {"system": "S. epidermidis", "assay": "Susceptibility testing (MIC, modified NCCLS method)", "assay_type": "cell-based, Staphylococcus epidermidis", "procedure,_shortened": "(§1)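 Growth inhibition was scored by optical density increase at 600 nm. Bacteria in broth were added at roughly 1-1.5×10^6 cells/ml to 20 twofold serial dilutions of compound, prepared from water or DMSO stocks. The NCCLS MIC procedure was modified for high throughput.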"}, "[1]": {"assay_type": "physicochemical", "conditions": "5 h, pH 7.2", "procedure": "Assays were conducted at 37° C. in 100 mM potassium phosphate buffer pH 7.2 with 1 mM EDTA and 0.5 μg/ml TEM-1 β-lactamase. Compound (9) catalysis was determined via fixed time incubations followed by acid quenching. Product formation (triclosan) was determined by integrated peak area of A260 nm following HPLC separation. Hydrolysis product (triclosan) was separated from Compound (9) by use of an HP1100 series HPLC equipped with an Alltech Adsorbosphere HS(C18)5u 150 mm×4.6 mm column. The mobile phase was isocratic containing 55% acetonitrile and 0.1% TFA producing retention times of 20.4 minutes and 24.1 minutes for triclosan and Compound (9), respectively. Quantitation of triclosan was based on the A260 integrated peak area as compared to triclosan standards.\nA typical TEM-1 β-lactamase assay is conducted at 37° C. in 1.4 ml of 100 mM potassium phosphate pH 7.2, 1 mM; ethylenediamine tetraacetic acid (EDTA) and 25 nM TEM-1 β-lactamase. A test compound is assayed at several concentrations, for example at 5 and 20 μM. At timed intervals oft=0, 15, 30, 60 and 120 minutes, 200 μl of the assay mixture is withdrawn and added to 8 μl of 10% trifluoracetic acid (TFA) in an high pressure liquid chromatography.(HPLC) microvial. Substrates and products are separated and quantitated via HPLC (described below). […]"}, "[2]": {"system": "S. aureus clinical isolates", "assay": "MIC by agar dilution, recent clinical isolates (UCSD Medical Center)", "assay_type": "cell-based, Staphylococcus aureus", "conditions": "MRSA (17)"}, "K. pneumoniae": {"system": "K. pneumoniae", "assay": "Susceptibility testing (MIC, modified NCCLS method)", "assay_type": "cell-based, Klebsiella pneumoniae", "conditions": "K. pneumoniae (5)", "procedure,_shortened": "as §1"}, "E. coli N": {"system": "E. coli N", "assay": "Inhibition of bacterial growth (IC50, OD600)", "assay_type": "cell-based", "conditions": "Escherichia coli", "procedure": "(§2) Compounds of the invention were tested for their ability to inhibit the growth of β-lactam sensitive and resistant bacteria by contacting samples of such cells with various dilutions of the compositions, incubating the cells at 37° C. in the presence of these compositions and then measuring the number of viable cells present in each sample.\n(§3) Two compounds of the invention were tested, Compound (9) and Compound (1l). Incubation of bacterial cells was performed for two time periods, 10 hours and 20 hours. Four E. coli strains were used for the test. These strains were all derived from the strain NovaBlue (NovaGen Inc., Madison, Wis.). E. coli N is a normal, β-lactam sensitive strain. E coli R(Tem1) is a β-lactam resistant strain with a β-lactamase gene on a plasmid. E. coli C(Tem4O-15) is a β-lactam resistant strain with a β-lactam inhibitor resistant β-lactamase gene, and E. coli C(Tem3 1-27) is β-lactam resistant strain with an alternative β-lactam inhibitor resistant β-lactamase gene.\n(§4) The various E. coli strains were each treated with dilutions of the compounds of the invention. […] The number of viable cells at each time point was determined by measuring the OD600 of each cell sample.\n(§5) After measuring the number of viable cells present, the IC50 for each sample was determined. […] In addition, both compounds were effective at inhibiting the growth of both antibiotic sensitive and resistant bacterial cells."}, "E. coli C(Tem3 1-27)": {"system": "E. coli C(Tem3 1-27)", "assay": "Inhibition of bacterial growth (IC50, OD600)", "assay_type": "cell-based", "conditions": "for IC50: Escherichia coli", "procedure": "as §2, §3, §4, §5"}, "E coli R(Tem1)": {"system": "E coli R(Tem1)", "assay": "Inhibition of bacterial growth (IC50, OD600)", "assay_type": "cell-based", "conditions": "for IC50 ratio N/R: N versus R (Tem1); for IC50: Escherichia coli", "procedure": "as §2, §3, §4, §5"}, "E. coli C(Tem4O-15)": {"system": "E. coli C(Tem4O-15)", "assay": "Inhibition of bacterial growth (IC50, OD600)", "assay_type": "cell-based", "conditions": "for IC50: Escherichia coli", "procedure": "as §2, §3, §4, §5"}, "[3]": {"system": "S. aureus clinical isolates", "assay": "MIC by agar dilution, recent clinical isolates (UCSD Medical Center)", "assay_type": "cell-based, Staphylococcus aureus", "conditions": "MSSA (14)", "procedure": "Growth of all 14 isolates of MSSA was inhibited by Compound (9) at the lowest tested concentration (0.08 μg/ml) (See Table 6, below)."}, "P. aeruginosa": {"system": "P. aeruginosa", "assay": "Susceptibility testing (MIC, modified NCCLS method)", "assay_type": "cell-based, Pseudomonas aeruginosa", "procedure,_shortened": "as §1"}, "[4]": {"system": "Vancomycin-resistant E. faecalis or E. faecium", "assay": "Susceptibility testing (MIC, modified NCCLS method)", "assay_type": "cell-based, Enterococcus faecalis, Enterococcus faecium", "conditions": "VRE (5)", "procedure": "The NCCLS (National Committee for Clinical Laboratory Standards) method to determine MIC's of antimicrobial compounds was modified for high-throughput screening. All stocks of tested compounds were prepared in either water or in dimethylsulfoxide (DMSO), depending on the solubility. […] Briefly 20 2-fold serial dilutions of testing compounds from the highest concentration were made in a 384-well microtiter plate. Each well was inoculated with testing bacteria in broth to a final concentration of approximately 1-1.5×10^6 cells/ml. Bacterial growth was determined by the increase of optical density at 600 nm using a microplate reader (Tecan SpectraFluor Plus)."}},
  "note": "Like-named read-outs stand apart in the source and are kept apart here.",
  "data": [
    {"smiles": "O=C(Cc1cccs1)N[C@@H]1C(=O)N2C(C(=O)O)=C(COc3cc(Cl)ccc3Oc3ccc(Cl)cc3Cl)CS[C@H]12", "note": "[Compound 9, 3-(2-(2,4-Dichlorophenoxy)-5-chlorophenoxy)methyl-7-(2-thienylacetamido)-3-cephem-4-carboxylic acid]", "values": [
      {"measurement": "MIC range", "setting": "S. epidermidis; S. epidermidis (5)", "value": "0.015 to 500", "unit": "ng/mL"},
      {"measurement": "GM* MIC (geometric mean)", "setting": "S. epidermidis; S. epidermidis (5), listed as Comp. (9)", "value": "<4", "unit": "ng/mL"},
      {"measurement": "fold more active than vancomycin", "setting": "S. epidermidis; S. epidermidis, geometric mean MIC", "value": 435, "unit": "fold"},
      {"measurement": "MIC", "setting": "S. epidermidis; Staphylococcus epidermidis, S. epidermidis (5), read-out: GM* MIC (geometric mean)", "value": 4, "unit": "ng/mL"},
      {"measurement": "stability in TEM-1 blank experiment", "setting": "[1]", "value": "stable up to 5 hours"},
      {"measurement": "MIC range", "setting": "[2]", "value": "80 to 600", "unit": "ng/mL"},
      {"measurement": "MIC50", "setting": "[2]; Staphylococcus aureus", "value": 80, "unit": "ng/mL"},
      {"measurement": "MIC90", "setting": "[2]; Staphylococcus aureus", "value": 300, "unit": "ng/mL"},
      {"measurement": "MIC range", "setting": "K. pneumoniae", "value": "980 to 3910", "unit": "ng/mL"},
      {"measurement": "MIC", "setting": "K. pneumoniae; Klebsiella pneumoniae, read-out: GM* MIC (geometric mean)", "value": 1960, "unit": "ng/mL"},
      {"measurement": "IC50", "setting": "E. coli N; 10 h, read-out: IC50 10 hours, Cell N, 10 hours, 37° C.", "value": 189, "unit": "nM"},
      {"measurement": "IC50", "setting": "E. coli N; 20 h, read-out: IC50 20 hours, Cell N, 20 hours", "value": 42.4, "unit": "nM"},
      {"measurement": "IC50 ratio (C/R or N/C)", "setting": "E. coli C(Tem3 1-27); 10 hours, line of C (Tem31-27)", "value": "C/R = 90x"},
      {"measurement": "IC50 ratio (given C/R or N/R)", "setting": "E. coli C(Tem3 1-27); 20 hours, line of C (Tem31-27)", "value": "C/R = 2x"},
      {"measurement": "IC50", "setting": "E. coli C(Tem3 1-27); 10 h, read-out: IC50 10 hours", "value": 2.09, "unit": "nM"},
      {"measurement": "IC50", "setting": "E. coli C(Tem3 1-27); 20 h, read-out: IC50 20 hours", "value": 21, "unit": "nM"},
      {"measurement": "IC50 ratio N/R", "setting": "E coli R(Tem1); 10 hours", "value": "N/R = 1969x"},
      {"measurement": "IC50 ratio N/R", "setting": "E coli R(Tem1); 20 hours", "value": "N/R = 10x"},
      {"measurement": "IC50", "setting": "E coli R(Tem1); 10 h, read-out: IC50 10 hours, Cell R (Tem1), 10 hours", "value": 0.096, "unit": "nM"},
      {"measurement": "IC50", "setting": "E coli R(Tem1); 20 h, read-out: IC50 20 hours, Cell R (Tem1), 20 hours", "value": 4.13, "unit": "nM"},
      {"measurement": "IC50 ratio (C/R or N/C)", "setting": "E. coli C(Tem4O-15); 10 hours, line of C (Tem40-15)", "value": "C/R = 117x"},
      {"measurement": "IC50 ratio (given C/R or N/R)", "setting": "E. coli C(Tem4O-15); 20 hours, line of C (Tem40-15)", "value": "C/R = 2.3x"},
      {"measurement": "IC50", "setting": "E. coli C(Tem4O-15); 10 h, read-out: IC50 10 hours", "value": 1.62, "unit": "nM"},
      {"measurement": "IC50", "setting": "E. coli C(Tem4O-15); 20 h, read-out: IC50 20 hours", "value": 18.3, "unit": "nM"},
      {"measurement": "MIC range", "setting": "[3]", "value": "≤ 0.08", "unit": "µg/mL"},
      {"measurement": "MIC range", "setting": "[3]; listed as Comp. (9)", "value": "0.08-0.08 μg/ml"},
      {"measurement": "MIC50", "setting": "[3]; Staphylococcus aureus", "value": 80, "unit": "ng/mL"},
      {"measurement": "MIC90", "setting": "[3]; Staphylococcus aureus", "value": 80, "unit": "ng/mL"},
      {"measurement": "activity against P. aeruginosa", "setting": "P. aeruginosa", "value": "no activity"},
      {"measurement": "MIC range", "setting": "P. aeruginosa; P. aeruginosa (7)", "value": ">15600", "unit": "ng/mL"},
      {"measurement": "MIC", "setting": "P. aeruginosa; Pseudomonas aeruginosa, P. aeruginosa (7), read-out: GM* MIC (geometric mean)", "value": "> 15600", "unit": "ng/mL"},
      {"measurement": "MIC", "setting": "[4]; Enterococcus, read-out: GM* MIC (geometric mean)", "value": 10300, "unit": "ng/mL"},
      {"measurement": "MIC range", "setting": "[4]", "value": "8000 to 16000", "unit": "ng/mL"}
    ]}
  ]
}
